Results from US8367831B2, “Heterocyclic compound or salt thereof and intermediate thereof” (priority 2006, dated 2013).
≈ marks a conversion by molar mass, not a printed value. Structures can show the parent of a compound that is named as a salt. Where two headings read alike, the source gives them in different places.

How the values were obtained:
[1] = Hygroscopicity of the salt (statement); format: physicochemical; conditions: trihydrochloride salt
[2] = Tissue distribution (general statement); conditions: qualitative statement, no comparator named
[3] = test system: Staphylococcus aureus (S. aureus Smith); experiment: S. aureus infection experiment in mice; format: in vivo; conditions: ICR mice, five per group, intraperitoneal infection, 1 hour after infection
Method: ICR mice (male, SPF grade, 4-week old, five mice per group) were used. A bacterial inoculum was prepared by suspending Staphylococcus aureus (S. aureus
Smith), which was cultured on a Mueller-Hinton agar plate at 37° C. overnight, in sterile physiological saline, preparing a bacterial solution of about 4×10^8 CFU/mL, and diluting the solution 10-fold in 5.6% mucin-phosphate buffer. ICR mice were intraperitoneally administered with the bacterial inoculum (approximately 2×10^7 CFU/mouse) to induce infection. Test substances were dissolved in 10% hydroxypropyl-β-cyclodextrin and 0.05 mol/L hydrochloric acid. […] The number of surviving mice was recorded on 5 days after the infection.

[4] = Antimicrobial activity (general statement); conditions: qualitative statement, no comparator named
[5] = Safety (general statement); conditions: qualitative statement, no comparator named
Text: The compound of the general formula [1] of the present invention has excellent safety. The safety can be evaluated by various tests, for example, by various types of safety tests selected from a cytotoxicity test, a selectivity test against DNA gyrase of human and various bacteria, a selectivity test against topoisomerase IV of human and various bacteria, an hERG test, a repeat-dose toxicity test, a cytochrome P450 (CYP) activity inhibition test, a metabolic dependence inhibition test, an in vivo mouse micronucleus test, an in vivo rat liver UDS test, and the like.

Cytotoxicity test (XTT) = format: cell-based; conditions: African green monkey, vero cells, 3 days incubation, absorbance 450 nm, read-out: CC50 (concentration when cell proliferation was inhibited by 50%)
Method: Each test substance was dissolved in dimethyl sulfoxide and was prepared to each concentration with E-MEM containing 10% FBS, and then 0.1 mL of this solution was dispensed into each well of a 96-well microplate. A vero cell suspension containing 3×10^4 cells/mL was prepared with E-MEM containing 10% FBS, and 0.1 mL of the suspension was inoculated to each well. After incubation in 5% CO2 at 37° C. for 3 days, 50 μL of E-MEM containing 1 mg/mL of 2,3-bis-(2-methoxy-4-nitro-5-sulfophenyl)-5-[(phenylamino)carbonyl]-2H-tetrazolium, inner salt, monosodium salt (XTT) and 25 μM of phenazine methosulfate (PMS) was added to each well. After about 2 hours, the absorbance at 450 nm was measured with a microplate reader.
The absorbance ratio of each well supplied with the test substance and the control not containing the test substance was calculated, and the concentration of each compound when cell proliferation was inhibited by 50% (CC50; μg/mL) was calculated.

S. aureus FDA209P = experiment: Susceptibility test 1: MIC by micro-dilution method; format: cell-based; conditions: Staphylococcus aureus, read-out: MIC (μg/mL) S. aureus FDA209P
Method: (§1) Test substances were initially dissolved in dimethylsulfoxide. Antibacterial activities (MICs) of the same compounds were determined by the micro-dilution method as recommended by the Japanese Society of Chemotherapy.
(§2) The bacteria cultured on Mueller-Hinton agar (MHA) plates at 35° C. overnight were suspended in sterile physiological saline in a concentration that was equivalent to 0.5 McFarland. The bacterial inoculum was prepared by 10-fold dilution of this suspension. Approximately 0.005 mL of the bacterial inoculum was inoculated into Cation-adjusted Mueller-Hinton broth (CAMHB, 100 μL/well) containing the test substance and was incubated at 35° C. overnight. The lowest concentration of the test substance at which no bacterial growth was macroscopically observed was determined as the MIC.

S. aureus F-3095 = experiment: as above; format: cell-based; conditions: Staphylococcus aureus
Method: as §1, §2

[6] = Metabolic stability (general statement); format: in vitro ADME; conditions: qualitative statement, no comparator named
Text: The compound of the general formula [1] of the present invention has excellent metabolic stability. The metabolic stability can be evaluated by various tests, for example, by various types of stability tests selected from a human liver microsome metabolic stability test, a human S9 stability test, and the like.

[7] = F3095, read-out: MIC (μg/mL) S. aureus F-3095
[8] = CAMHB, 35° C. overnight, lowest concentration with no macroscopic growth
[9] = F3095, F-3095 (MDRSA), CAMHB, 35° C. overnight, lowest concentration with no macroscopic growth, read-out: MIC (μg/mL) S. aureus F-3095

SMILES	hygroscopicity [1]	tissue distribution [2]	number of surviving mice on 5 days after the infection ([3]; 3 mg/kg subcutaneously once)	antimicrobial activity [4]	safety [5]	CC50 at 3 days (Cytotoxicity test (XTT))	MIC (S. aureus FDA209P)	MIC (S. aureus F-3095; [7])	metabolic stability [6]	number of surviving mice on 5 days after the infection ([3]; 1 mg/kg subcutaneously once)	MIC (S. aureus FDA209P; [8])	MIC (S. aureus F-3095; [9])
Cl.Cl.Cl.O=c1ccc2ncc(F)cc2n1CCN1CCC(NCc2cc3c(cn2)OCCO3)CC1 [1-(2-(4-((2,3-dihydro(1,4)dioxino(2,3-c)pyridin-7-ylmethyl)amino)piperidin-1-yl)ethyl)-7-fluoro-1,5-naphthyridin-2(1H)-one trihydrochloride]	nonhygroscopic											
COc1cnc2ccc(=O)n(CCN3CCC(NCc4cc5c(cn4)OCCO5)CC3)c2c1 [Example 2, 1-(2-(4-((2,3-dihydro(1,4)dioxino(2,3-c)pyridin-7-ylmethyl)amino)piperidin-1-yl)ethyl)-7-methoxy-1,5-naphthyridin-2(1H)-one hydrochloride]		higher	all mice	higher	higher	≥ 51.2 µg/mL	0.0313 µg/mL	0.0313 µg/mL	higher			
O=c1ccc2ncc(F)cc2n1CCN1CCC(NCc2cc3c(cn2)OCCO3)CC1 [Example 4, 1-(2-(4-((2,3-dihydro(1,4)dioxino(2,3-c)pyridin-7-ylmethyl)amino)piperidin-1-yl)ethyl)-7-fluoro-1,5-naphthyridin-2(1H)-one hydrochloride]		higher	all mice	higher	higher	≥ 51.2 µg/mL	0.0313 µg/mL	0.0313 µg/mL	higher			
COc1cnc2ncc(=O)n(CCN3CCC(NCc4cc5c(cn4)OCCO5)CC3)c2c1 [Example 68, 1-(2-(4-((2,3-dihydro(1,4)dioxino(2,3-c)pyridin-7-ylmethyl)amino)piperidin-1-yl)ethyl)-7-methoxypyrido(2,3-b)pyrazin-2(1H)-one hydrochloride]			all mice			≥ 51.2 µg/mL						
O=c1ccc2ncc(Cl)cc2n1CCN1CCC(NCc2cc3c(cn2)OCCO3)CC1 [Example 77, 7-chloro-1-(2-(4-((2,3-dihydro(1,4)dioxino(2,3-c)pyridin-7-ylmethyl)amino)piperidin-1-yl)ethyl)-1,5-naphthyridin-2(1H)-one hydrochloride]		higher	all mice	higher	higher	≥ 51.2 µg/mL	0.0313 µg/mL	0.0625 µg/mL	higher			
COc1cnc2ccc(=O)n(CCN3CCC(NCc4cc5c(cn4)OCCO5)CC3)c2n1 [Example 85, 5-(2-(4-((2,3-dihydro(1,4)dioxino(2,3-c)pyridin-7-ylmethyl)amino)piperidin-1-yl)ethyl-3-methoxypyrido(2,3-b)pyrazin-6(5H)-one hydrochloride]		higher		higher	higher	≥ 51.2 µg/mL	0.0313 µg/mL	0.0313 µg/mL	higher	four mice out of five		
COc1cnc2ccc(=O)n(CCN3CCC(NCc4cnc(C)c(F)c4)CC3)c2c1 [Example 93, 1-(2-(4-(((5-fluoro-6-methylpyridin-3-yl)methyl)amino)piperidin-1-yl)ethyl)-7-methoxy-1,5-naphthyridin-2(1H)-one]			all mice			≥ 51.2 µg/mL					0.0625 µg/mL (≈ 0.147 µM)	0.0313 µg/mL (≈ 0.0736 µM)
O=c1ccc2ncc(F)cc2n1CCN1CCC(NCc2cc3c(cn2)OCCC3)CC1 [Example 103, 1-(2-(4-((3,4-dihydro-2H-pyrano(2,3-c)pyridin-6-ylmethyl)amino)piperidin-1-yl)ethyl)-7-fluoro-1,5-naphthyridin-2(1H)-one hydrochloride]			all mice			≥ 51.2 µg/mL	0.0625 µg/mL	0.0625 µg/mL				
COc1cnc2ccc(=O)n(CCC3(O)CCC(NCc4cc5c(cn4)OCCO5)CC3)c2n1 (stereo not shown) [Example 119B, 5-(2-(4-((2,3-dihydro(1,4)dioxino(2,3-c)pyridin-7-ylmethyl)amino)-1-hydroxycyclohexyl)ethyl)-3-methoxypyrido(2,3-b)pyrazin-6(5H)-one]			all mice								0.0625 µg/mL (≈ 0.134 µM)	0.0625 µg/mL (≈ 0.134 µM)
COc1cnc2ccc(=O)n(CCN3CCC(NCc4cc(-c5ccco5)on4)CC3)c2c1 [Example 140, 1-(2-(4-(((5-(2-furyl)isoxazol-3-yl)methyl)amino)piperidin-1-yl)ethyl)-7-methoxy-1,5-naphthyridin-2(1H)-one]			all mice								0.0156 µg/mL (≈ 0.0347 µM)	0.0156 µg/mL (≈ 0.0347 µM)
COc1cnc2c(C)cc(=O)n(CCN3CCC(NCc4cc5c(cn4)OCCO5)CC3)c2c1 [Example 149, 1-(2-(4-((2,3-dihydro(1,4)dioxino(2,3-c)pyridin-7-ylmethyl)amino)piperidin-1-yl)ethyl)-7-methoxy-4-methyl-1,5-naphthyridin-2(1H)-one hydrochloride]			all mice				0.0313 µg/mL	0.0313 µg/mL				
O=c1ccc2ncc(OC(F)F)cc2n1CCN1CCC(NCc2cc3c(cn2)OCCO3)CC1 [Example 151, 7-(difluoromethoxy)-1-(2-(4-((2,3-dihydro(1,4)dioxino(2,3-c)pyridin-7-ylmethyl)amino)piperidin-1-yl)ethyl)-1,5-naphthyridin-2(1H)-one hydrochloride]			all mice				0.0313 µg/mL	0.125 µg/mL				
